What follows are compounds tested against STK11 (human) (UniProt Q15831) (assay: KINOMEscan competition binding). Conditions: compound 10.0 µM.

Row | Compound | kinase still bound, per cent of control
1 | CCOc1cc(N2CCC(N3CCCCC3)CC2)ccc1Nc1nc(Nc2ccccc2S(=O)(=O)C(C)C)c2cn[nH]c2n1 | 100%

The compounds below were run against NEK7 (human) (UniProt Q8TDX7) (assay: KINOMEscan competition binding). Conditions: compound 10.0 µM.
Sequence of NEK7 (human) (Q8TDX7 whole entry, looked up): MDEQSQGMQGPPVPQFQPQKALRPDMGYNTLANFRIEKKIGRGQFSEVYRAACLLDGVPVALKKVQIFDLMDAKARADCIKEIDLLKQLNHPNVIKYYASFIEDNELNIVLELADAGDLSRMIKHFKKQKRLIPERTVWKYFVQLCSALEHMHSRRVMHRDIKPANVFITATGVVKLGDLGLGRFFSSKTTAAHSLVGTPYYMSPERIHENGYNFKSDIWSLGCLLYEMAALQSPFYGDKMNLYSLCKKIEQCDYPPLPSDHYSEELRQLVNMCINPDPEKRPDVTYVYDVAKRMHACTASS

Row | Compound | kinase still bound, per cent of control
2 | CCN1CCN(Cc2ccc(NC(=O)c3ccc(C)c(/C=C/c4cnc(Nc5cc(N6CCNCC6)nc(C)n5)cn4)c3)cc2C(F)(F)F)CC1 | 100%
3 | COc1cc(N2CCC(N3CCN(C)CC3)CC2)ccc1Nc1ncc(Cl)c(Nc2ccccc2S(=O)(=O)C(C)C)n1 | 3.8%
4 | CCOc1cc(N2CCC(N3CCCCC3)CC2)ccc1Nc1nc(Nc2ccccc2S(=O)(=O)C(C)C)c2cn[nH]c2n1 | 100%

These compounds were tested on ABL1 (human), P00519 [M351T] (assay: KINOMEscan competition binding). Conditions: compound 10.0 µM.

Row | Compound | kinase still bound, per cent of control
5 | CCN1CCN(Cc2ccc(NC(=O)c3ccc(C)c(/C=C/c4cnc(Nc5cc(N6CCNCC6)nc(C)n5)cn4)c3)cc2C(F)(F)F)CC1 | 3.8%
6 | COc1cc(N2CCC(N3CCN(C)CC3)CC2)ccc1Nc1ncc(Cl)c(Nc2ccccc2S(=O)(=O)C(C)C)n1 | 5%
7 | CCOc1cc(N2CCC(N3CCCCC3)CC2)ccc1Nc1nc(Nc2ccccc2S(=O)(=O)C(C)C)c2cn[nH]c2n1 | 53%
8 | CCN1CCN(Cc2ccc(NC(=O)c3ccc(C)c(Oc4ccnc5[nH]ccc45)c3)cc2C(F)(F)F)CC1 | 0.35%

These compounds were tested against FRK (human) (UniProt P42685) (assay: KINOMEscan competition binding). Conditions: compound 10.0 µM.
Sequence of FRK (human) (P42685 whole entry, looked up): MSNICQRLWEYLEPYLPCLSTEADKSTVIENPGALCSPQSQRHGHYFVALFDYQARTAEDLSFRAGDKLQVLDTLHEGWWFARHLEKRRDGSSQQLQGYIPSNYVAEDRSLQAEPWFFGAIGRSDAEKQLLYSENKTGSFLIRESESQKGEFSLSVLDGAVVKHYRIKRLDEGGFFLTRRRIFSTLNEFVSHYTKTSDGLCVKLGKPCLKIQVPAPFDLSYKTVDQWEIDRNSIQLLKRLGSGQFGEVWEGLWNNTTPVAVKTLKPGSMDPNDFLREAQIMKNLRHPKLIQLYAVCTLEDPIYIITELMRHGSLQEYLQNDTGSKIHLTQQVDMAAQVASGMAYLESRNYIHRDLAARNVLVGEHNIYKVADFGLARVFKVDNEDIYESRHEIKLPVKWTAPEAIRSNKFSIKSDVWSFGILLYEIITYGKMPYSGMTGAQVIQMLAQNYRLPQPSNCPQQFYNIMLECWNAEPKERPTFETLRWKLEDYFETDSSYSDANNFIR

Row | Compound | kinase still bound, per cent of control
9 | CCN1CCN(Cc2ccc(NC(=O)c3ccc(C)c(/C=C/c4cnc(Nc5cc(N6CCNCC6)nc(C)n5)cn4)c3)cc2C(F)(F)F)CC1 | 7%
10 | COc1cc(N2CCC(N3CCN(C)CC3)CC2)ccc1Nc1ncc(Cl)c(Nc2ccccc2S(=O)(=O)C(C)C)n1 | 0.2%
11 | CCOc1cc(N2CCC(N3CCCCC3)CC2)ccc1Nc1nc(Nc2ccccc2S(=O)(=O)C(C)C)c2cn[nH]c2n1 | 18%
12 | CCN1CCN(Cc2ccc(NC(=O)c3ccc(C)c(Oc4ccnc5[nH]ccc45)c3)cc2C(F)(F)F)CC1 | 0.7%

The compounds below were run against MYO3B (human) (UniProt Q8WXR4) (assay: KINOMEscan competition binding). Conditions: compound 10.0 µM.
Sequence of MYO3B (human) (Q8WXR4 whole entry, looked up): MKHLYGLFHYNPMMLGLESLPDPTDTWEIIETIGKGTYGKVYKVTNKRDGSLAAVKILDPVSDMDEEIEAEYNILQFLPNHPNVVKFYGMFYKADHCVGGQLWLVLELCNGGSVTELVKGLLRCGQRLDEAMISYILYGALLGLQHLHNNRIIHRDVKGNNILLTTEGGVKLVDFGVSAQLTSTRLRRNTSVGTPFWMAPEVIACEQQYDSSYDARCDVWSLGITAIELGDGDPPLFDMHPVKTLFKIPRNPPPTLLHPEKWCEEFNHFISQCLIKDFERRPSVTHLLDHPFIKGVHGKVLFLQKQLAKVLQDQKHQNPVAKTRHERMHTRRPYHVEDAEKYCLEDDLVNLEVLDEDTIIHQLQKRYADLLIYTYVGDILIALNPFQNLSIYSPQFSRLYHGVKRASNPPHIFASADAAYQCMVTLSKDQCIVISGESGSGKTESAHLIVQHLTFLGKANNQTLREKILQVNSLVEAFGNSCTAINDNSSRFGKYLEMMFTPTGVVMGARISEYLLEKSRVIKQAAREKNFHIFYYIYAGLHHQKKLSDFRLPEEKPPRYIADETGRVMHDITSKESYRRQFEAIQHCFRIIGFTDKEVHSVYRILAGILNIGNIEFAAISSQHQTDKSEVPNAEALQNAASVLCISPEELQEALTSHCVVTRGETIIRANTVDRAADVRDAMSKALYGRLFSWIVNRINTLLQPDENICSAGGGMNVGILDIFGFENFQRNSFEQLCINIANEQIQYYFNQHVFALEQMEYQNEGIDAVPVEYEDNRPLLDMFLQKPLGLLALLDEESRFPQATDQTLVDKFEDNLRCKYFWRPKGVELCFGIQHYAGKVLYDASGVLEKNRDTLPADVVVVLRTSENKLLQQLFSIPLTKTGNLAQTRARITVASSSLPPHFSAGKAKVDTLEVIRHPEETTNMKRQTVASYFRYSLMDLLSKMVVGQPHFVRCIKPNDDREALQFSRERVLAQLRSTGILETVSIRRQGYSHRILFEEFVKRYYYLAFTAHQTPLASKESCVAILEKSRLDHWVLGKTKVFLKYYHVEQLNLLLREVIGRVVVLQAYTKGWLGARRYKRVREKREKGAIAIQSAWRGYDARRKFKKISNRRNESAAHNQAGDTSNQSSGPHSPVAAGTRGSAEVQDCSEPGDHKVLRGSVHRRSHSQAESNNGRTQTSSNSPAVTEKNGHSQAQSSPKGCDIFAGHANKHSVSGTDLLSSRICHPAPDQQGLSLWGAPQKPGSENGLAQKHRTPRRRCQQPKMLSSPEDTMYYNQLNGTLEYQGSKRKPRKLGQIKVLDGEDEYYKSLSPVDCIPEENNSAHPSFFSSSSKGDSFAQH

Row | Compound | kinase still bound, per cent of control
13 | CCN1CCN(Cc2ccc(NC(=O)c3ccc(C)c(/C=C/c4cnc(Nc5cc(N6CCNCC6)nc(C)n5)cn4)c3)cc2C(F)(F)F)CC1 | 67%
14 | COc1cc(N2CCC(N3CCN(C)CC3)CC2)ccc1Nc1ncc(Cl)c(Nc2ccccc2S(=O)(=O)C(C)C)n1 | 0.6%
15 | CCOc1cc(N2CCC(N3CCCCC3)CC2)ccc1Nc1nc(Nc2ccccc2S(=O)(=O)C(C)C)c2cn[nH]c2n1 | 18%
16 | CCN1CCN(Cc2ccc(NC(=O)c3ccc(C)c(Oc4ccnc5[nH]ccc45)c3)cc2C(F)(F)F)CC1 | 4.8%

Each compound was assayed against MAPK8 (human) (UniProt P45983) (assay: KINOMEscan competition binding). Conditions: compound 10.0 µM.
Sequence of MAPK8 (human) (P45983 whole entry, looked up): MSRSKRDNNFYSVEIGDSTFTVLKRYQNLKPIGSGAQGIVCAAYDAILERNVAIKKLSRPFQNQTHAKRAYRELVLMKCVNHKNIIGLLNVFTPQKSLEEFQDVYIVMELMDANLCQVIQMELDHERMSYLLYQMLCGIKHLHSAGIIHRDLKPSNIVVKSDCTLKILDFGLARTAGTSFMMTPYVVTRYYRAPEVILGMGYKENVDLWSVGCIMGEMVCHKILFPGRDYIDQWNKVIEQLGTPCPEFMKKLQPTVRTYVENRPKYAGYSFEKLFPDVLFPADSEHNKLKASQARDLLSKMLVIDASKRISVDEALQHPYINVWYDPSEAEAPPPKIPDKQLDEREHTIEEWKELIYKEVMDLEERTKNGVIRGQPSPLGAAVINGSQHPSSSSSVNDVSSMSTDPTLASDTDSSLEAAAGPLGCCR

Row | Compound | kinase still bound, per cent of control
17 | CCN1CCN(Cc2ccc(NC(=O)c3ccc(C)c(/C=C/c4cnc(Nc5cc(N6CCNCC6)nc(C)n5)cn4)c3)cc2C(F)(F)F)CC1 | 24%
18 | COc1cc(N2CCC(N3CCN(C)CC3)CC2)ccc1Nc1ncc(Cl)c(Nc2ccccc2S(=O)(=O)C(C)C)n1 | 5.2%
19 | CCOc1cc(N2CCC(N3CCCCC3)CC2)ccc1Nc1nc(Nc2ccccc2S(=O)(=O)C(C)C)c2cn[nH]c2n1 | 4.3%
20 | CCN1CCN(Cc2ccc(NC(=O)c3ccc(C)c(Oc4ccnc5[nH]ccc45)c3)cc2C(F)(F)F)CC1 | 0%

Each compound was assayed against BMPR2 (human) (UniProt Q13873) (assay: KINOMEscan competition binding). Conditions: compound 10.0 µM.
Sequence of BMPR2 (human) (Q13873 whole entry, looked up): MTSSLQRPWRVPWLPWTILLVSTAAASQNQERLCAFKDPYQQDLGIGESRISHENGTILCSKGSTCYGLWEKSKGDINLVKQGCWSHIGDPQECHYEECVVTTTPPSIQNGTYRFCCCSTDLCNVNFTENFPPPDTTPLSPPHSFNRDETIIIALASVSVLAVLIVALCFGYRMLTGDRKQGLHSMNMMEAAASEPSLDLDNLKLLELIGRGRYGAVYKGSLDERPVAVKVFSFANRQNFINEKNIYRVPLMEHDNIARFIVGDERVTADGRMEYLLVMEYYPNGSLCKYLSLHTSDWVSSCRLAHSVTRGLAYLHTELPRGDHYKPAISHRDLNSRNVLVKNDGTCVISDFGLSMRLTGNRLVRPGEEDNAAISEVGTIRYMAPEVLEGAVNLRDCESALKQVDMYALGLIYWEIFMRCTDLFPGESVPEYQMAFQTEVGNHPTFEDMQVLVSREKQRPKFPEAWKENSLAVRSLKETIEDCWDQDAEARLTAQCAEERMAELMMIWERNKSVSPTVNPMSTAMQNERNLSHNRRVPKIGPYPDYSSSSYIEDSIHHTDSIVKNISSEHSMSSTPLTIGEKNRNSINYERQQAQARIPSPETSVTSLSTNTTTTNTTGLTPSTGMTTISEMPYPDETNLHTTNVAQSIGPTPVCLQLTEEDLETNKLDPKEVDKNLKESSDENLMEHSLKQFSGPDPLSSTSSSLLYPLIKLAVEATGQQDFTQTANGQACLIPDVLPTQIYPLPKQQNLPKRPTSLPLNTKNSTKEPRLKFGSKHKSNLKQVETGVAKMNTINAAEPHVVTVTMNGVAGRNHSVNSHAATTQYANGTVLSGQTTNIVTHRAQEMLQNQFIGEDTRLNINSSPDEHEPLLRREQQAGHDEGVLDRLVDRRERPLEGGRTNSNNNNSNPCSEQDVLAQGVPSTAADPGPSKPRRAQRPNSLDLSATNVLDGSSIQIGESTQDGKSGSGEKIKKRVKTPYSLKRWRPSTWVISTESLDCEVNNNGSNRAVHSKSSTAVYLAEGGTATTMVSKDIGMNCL

Row | Compound | kinase still bound, per cent of control
21 | CCN1CCN(Cc2ccc(NC(=O)c3ccc(C)c(/C=C/c4cnc(Nc5cc(N6CCNCC6)nc(C)n5)cn4)c3)cc2C(F)(F)F)CC1 | 100%
22 | COc1cc(N2CCC(N3CCN(C)CC3)CC2)ccc1Nc1ncc(Cl)c(Nc2ccccc2S(=O)(=O)C(C)C)n1 | 40%
23 | CCOc1cc(N2CCC(N3CCCCC3)CC2)ccc1Nc1nc(Nc2ccccc2S(=O)(=O)C(C)C)c2cn[nH]c2n1 | 85%

Each compound was assayed against STK24 (human) (UniProt Q9Y6E0) (assay: KINOMEscan competition binding). Conditions: compound 10.0 µM.

Row | Compound | kinase still bound, per cent of control
24 | CCN1CCN(Cc2ccc(NC(=O)c3ccc(C)c(/C=C/c4cnc(Nc5cc(N6CCNCC6)nc(C)n5)cn4)c3)cc2C(F)(F)F)CC1 | 30%
25 | COc1cc(N2CCC(N3CCN(C)CC3)CC2)ccc1Nc1ncc(Cl)c(Nc2ccccc2S(=O)(=O)C(C)C)n1 | 24%
26 | CCOc1cc(N2CCC(N3CCCCC3)CC2)ccc1Nc1nc(Nc2ccccc2S(=O)(=O)C(C)C)c2cn[nH]c2n1 | 82%

Each compound was assayed against ACVR1 (human) (UniProt Q04771) (assay: KINOMEscan competition binding). Conditions: compound 10.0 µM.

Row | Compound | kinase still bound, per cent of control
27 | CCN1CCN(Cc2ccc(NC(=O)c3ccc(C)c(/C=C/c4cnc(Nc5cc(N6CCNCC6)nc(C)n5)cn4)c3)cc2C(F)(F)F)CC1 | 100%
28 | COc1cc(N2CCC(N3CCN(C)CC3)CC2)ccc1Nc1ncc(Cl)c(Nc2ccccc2S(=O)(=O)C(C)C)n1 | 0%
29 | CCOc1cc(N2CCC(N3CCCCC3)CC2)ccc1Nc1nc(Nc2ccccc2S(=O)(=O)C(C)C)c2cn[nH]c2n1 | 60%

What follows are compounds tested against MINK1 (human) (UniProt Q8N4C8) (assay: KINOMEscan competition binding). Conditions: compound 10.0 µM.
Sequence of MINK1 (human) (Q8N4C8 whole entry, looked up): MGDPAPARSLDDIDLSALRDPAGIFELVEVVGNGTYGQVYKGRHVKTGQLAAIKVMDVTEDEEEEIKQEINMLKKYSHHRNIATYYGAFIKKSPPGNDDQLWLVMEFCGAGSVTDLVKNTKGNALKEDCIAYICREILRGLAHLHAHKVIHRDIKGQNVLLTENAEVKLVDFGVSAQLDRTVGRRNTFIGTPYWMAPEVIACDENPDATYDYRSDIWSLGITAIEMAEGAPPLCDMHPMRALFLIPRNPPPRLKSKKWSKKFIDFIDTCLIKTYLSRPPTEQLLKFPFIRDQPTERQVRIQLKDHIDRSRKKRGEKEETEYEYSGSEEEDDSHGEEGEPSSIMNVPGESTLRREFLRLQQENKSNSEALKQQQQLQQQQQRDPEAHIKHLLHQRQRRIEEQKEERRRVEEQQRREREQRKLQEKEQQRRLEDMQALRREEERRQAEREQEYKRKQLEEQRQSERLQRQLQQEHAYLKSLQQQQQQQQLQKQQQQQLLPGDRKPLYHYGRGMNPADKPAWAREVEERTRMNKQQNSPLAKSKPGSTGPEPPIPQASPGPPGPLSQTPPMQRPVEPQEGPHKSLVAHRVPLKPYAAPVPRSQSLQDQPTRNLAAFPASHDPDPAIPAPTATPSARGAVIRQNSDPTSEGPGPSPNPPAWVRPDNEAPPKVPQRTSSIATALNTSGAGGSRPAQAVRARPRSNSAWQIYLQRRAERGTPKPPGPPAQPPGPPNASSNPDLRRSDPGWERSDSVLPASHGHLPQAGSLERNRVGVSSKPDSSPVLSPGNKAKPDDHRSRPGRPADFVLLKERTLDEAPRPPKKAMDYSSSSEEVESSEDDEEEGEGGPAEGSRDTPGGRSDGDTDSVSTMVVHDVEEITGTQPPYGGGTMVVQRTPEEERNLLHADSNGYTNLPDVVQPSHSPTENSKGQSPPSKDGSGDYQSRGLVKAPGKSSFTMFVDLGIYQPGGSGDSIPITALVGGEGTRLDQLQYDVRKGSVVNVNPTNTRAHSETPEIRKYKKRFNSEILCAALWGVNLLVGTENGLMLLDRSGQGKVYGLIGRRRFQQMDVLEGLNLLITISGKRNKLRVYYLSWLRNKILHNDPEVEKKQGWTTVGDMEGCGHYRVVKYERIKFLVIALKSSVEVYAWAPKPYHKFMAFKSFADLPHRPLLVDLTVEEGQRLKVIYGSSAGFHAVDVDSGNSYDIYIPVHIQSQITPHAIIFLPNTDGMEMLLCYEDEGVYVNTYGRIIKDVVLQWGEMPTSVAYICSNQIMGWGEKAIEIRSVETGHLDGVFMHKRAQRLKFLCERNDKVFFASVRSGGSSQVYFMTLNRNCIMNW

Row | Compound | kinase still bound, per cent of control
30 | CCN1CCN(Cc2ccc(NC(=O)c3ccc(C)c(/C=C/c4cnc(Nc5cc(N6CCNCC6)nc(C)n5)cn4)c3)cc2C(F)(F)F)CC1 | 4.3%
31 | COc1cc(N2CCC(N3CCN(C)CC3)CC2)ccc1Nc1ncc(Cl)c(Nc2ccccc2S(=O)(=O)C(C)C)n1 | 40%
32 | CCOc1cc(N2CCC(N3CCCCC3)CC2)ccc1Nc1nc(Nc2ccccc2S(=O)(=O)C(C)C)c2cn[nH]c2n1 | 71%

Each compound was assayed against PRKACB (human) (UniProt P22694) (assay: KINOMEscan competition binding). Conditions: compound 10.0 µM.

Row | Compound | kinase still bound, per cent of control
33 | CCN1CCN(Cc2ccc(NC(=O)c3ccc(C)c(/C=C/c4cnc(Nc5cc(N6CCNCC6)nc(C)n5)cn4)c3)cc2C(F)(F)F)CC1 | 90%
34 | COc1cc(N2CCC(N3CCN(C)CC3)CC2)ccc1Nc1ncc(Cl)c(Nc2ccccc2S(=O)(=O)C(C)C)n1 | 9.9%

Reference: the kinase profiling compilation of Christmann-Franck et al. (2016)
